We go through 36 molecules from patent US9533983B2, “Antiplatelet agent” (Mitsubishi Tanabe Pharma Corporation, priority 2009, dated 2017).

Test [1] concerns Ristocetin-Induced Platelet Aggregation. Briefly: Platelet aggregation inhibitory activity: ristocetin-induced platelet aggregation in platelet rich plasma. The class given is cell-based. The note with it: Cavia porcellus, guinea pig PRP. On the procedure:
(§1) A blood of a guinea pig was sampled by using a 1/10 volume of a 3.8% sodium citrate as a platelet aggregation inhibitor, and a platelet rich plasma (PRP) was separated by centrifuging the blood sample at 1100 rpm for 10 min. After fractionating the PRP in the upper layer, the lower layer was centrifuged at 3000 rpm for 10 min to fractionate the platelet poor plasma (PPP). To 100 μL of PRP, a 1 μL solution of each compound was added, and after still standing at 37° C. for 1 min, the mixture was stirred at 37° C. for 1 min by a stirrer. Then, 11 μL of collagen, ristocetin, or ADP was added thereto to induce the platelet aggregation. The platelet aggregation ability was measured by using the mCM hematolaser 313M (L-M-S Inc.). Based on the assumption that a light transmittance of PPP corresponds to a 100% coagulation value, an aggregation rate at each concentration of the compound was determined, then, an IC50 value was calculated therefrom.
[Platelet Aggregation Inhibitory Activities: Ristocetin-Induced Platelet Aggregation]

For test [2], the system named is Collagen-Induced Platelet Aggregation. The experiment in a line: Platelet aggregation inhibitory activity: collagen-induced platelet aggregation in platelet rich plasma. The class given is cell-based. To be noted: Cavia porcellus, guinea pig PRP. On the procedure:
as §1
[Platelet Aggregation Inhibitory Activities: Collagen-Induced Platelet Aggregation]

By IC50 is commonly meant the concentration that inhibits the measured activity by half. The low end stands for greater potency, the high end for weaker potency.

The structures appear in SMILES notation.

For the molecule `COc1ccc(-n2c(-c3cccc(F)n3)nc3cc(C(F)(F)F)ccc32)nn1` [Example 2, 2-(6-fluoropyridin-2-yl)-1-(6-methoxypyridazin-3-yl)-5-(trifluoromethyl)-1H-benzimidazole], the half-maximal inhibitory concentration (IC50) in test [1] came to 0.092 µM; in test [2], 0.18 µM.
`CNc1ccc(-n2c(-c3ccccn3)nc3cc(C(F)(F)F)cnc32)cn1` [Example 5, N-methyl-5-[2-pyridin-2-yl-6-(trifluoromethyl)-3H-imidazo[4,5-b]pyridin-3-yl]pyridin-2-amine] registered a half-inhibitory concentration (IC50) in test [2] of 0.089 µM.
The same measure, in the same setting: in the case of `CN(C)c1ccc(-n2c(-c3ccccn3)nc3cc(C(F)(F)F)cnc32)cn1` [Example 6, N,N-dimethyl-5-[2-pyridin-2-yl-6-(trifluoromethyl)-3H-imidazo[4,5-b]pyridin-3-yl]pyridin-2-amine] it was 0.257 µM.
Turning to `COc1ccc(-n2c(-c3cnc(C#N)cn3)nc3cc(C(F)(F)F)cnc32)cn1` [Example 8, 5-[3-(6-methoxypyridin-3-yl)-6-(trifluoromethyl)-3H-imidazo[4,5-b]pyridin-2-yl]pyrazine-2-carbonitrile], the results for the IC50 in test [1] and in test [2] were 0.095 µM and 0.15 µM, respectively.
Regarding `COc1ccc(-n2c(-c3ccc(OC)nn3)nc3cc(C(F)(F)F)ccc32)cn1` [Example 9, 2-(6-methoxypyridazin-3-yl)-1-(6-methoxypyridin-3-yl)-5-(trifluoromethyl)-1H-benzimidazole], the values for the IC50 in test [1] and in test [2] were 0.14 µM and 0.15 µM, respectively.
For `COc1ccc(-n2c(-c3ccc[nH]3)nc3cc(C(F)(F)F)cnc32)cn1` [Example 10, 3-(6-methoxypyridin-3-yl)-2-(1H-pyrrol-2-yl)-6-(trifluoromethyl)-3H-imidazo[4,5-b]pyridine], the figures for the half-inhibitory concentration (IC50) in test [1] and in test [2] were 0.015 µM and 0.018 µM, respectively.
Consider `COc1ccc(-n2c(-c3c[nH]cn3)nc3cc(C(F)(F)F)cnc32)cn1` [Example 11, 2-(1H-Imidazol-4-yl)-3-(6-methoxypyridin-3-yl)-6-(trifluoromethyl)-3H-imidazo[4,5-b]pyridine], for which the 50% inhibitory concentration (IC50) in test [1] was 0.057 µM; in test [2], 0.13 µM.
Regarding `FC(F)(F)c1ccc2c(c1)nc(-c1ccccn1)n2-c1ccccn1` [Example 12, 1,2-Dipyridin-2-yl-5-(trifluoromethyl)-1H-benzimidazole], the IC50 was 0.19 µM in test [1] and 0.23 µM in test [2].
For the molecule `COc1ccc(-n2c(-c3cnn(C)c3)nc3cc(C(F)(F)F)ccc32)nn1` [Example 15, 1-(6-methoxypyridazin-3-yl)-2-(1-methyl-1H-pyrazol-4-yl)-5-(trifluoromethyl)-1H-benzimidazole], the half-inhibitory concentration (IC50) in test [1] is 0.15 µM; in test [2], 0.28 µM.
Turning to `CCc1ccc2c(c1)nc(-c1ccccn1)n2-c1ccc(OC)nc1` [Example 17, 5-ethyl-1-(6-methoxypyridin-3-yl)-2-pyridin-2-yl-1H-benzimidazole], the IC50 in test [1] was determined as 0.16 µM; in test [2] it was 0.11 µM.
The like results for `COc1ccc(-n2c(-c3ccccc3)nc3cc(C(F)(F)F)ccc32)cn1` [Example 18, 1-(6-methoxypyridin-3-yl)-2-phenyl-5-(trifluoromethyl)-1H-benzimidazole] were, in that order, 0.12 µM and 0.49 µM.
As to `COc1ccc(-n2c(-c3ccccn3)nc3ccc(C(F)(F)F)cc32)cn1` [Example 19], in test [2], half-maximal inhibition (IC50) required 10.4 µM. This lies in the double-digit micromolar range.
Turning to `COc1ccc(-n2c(-c3ccc(Br)cn3)nc3cc(C(F)(F)F)ccc32)cn1` [Example 20, 2-(5-bromopyridin-2-yl)-1-(6-methoxypyridin-3-yl)-5-(trifluoromethyl)-1H-benzimidazole], the values for the IC50 in test [1] and in test [2] were 0.21 µM and 0.062 µM, respectively.
As to `COc1ccc(-n2c(-c3ccccn3)nc3ccccc32)cn1` [Example 23], in test [2], the IC50 is 4.47 µM. This lies in the single-digit micromolar range.
Consider `COc1ccc(-n2c(-c3ccc(Br)cn3)nc3cc(C(F)(F)F)ccc32)nn1` [Example 35, 2-(5-bromopyridin-2-yl)-1-(6-methoxypyridazin-3-yl)-5-(trifluoromethyl)-1H-benzimidazole], for which, in test [2], the half-inhibitory concentration (IC50) was found to be 0.044 µM. Against the preceding molecule, the IC50 is about 100-fold lower.
Still for that read-out and setting: next, `COc1ccc(-n2c(-c3ccccn3)nc3c(C(F)(F)F)cccc32)cn1` [Example 37]: 2.38 µM.
On to `COc1ccc(-n2c(-c3ccccn3)nc3cccnc32)cn1` [Example 49], for which, in test [2], inhibition was half-maximal at 15 µM (IC50).
On to `Cc1ccc(-n2c(-c3ccccn3)nc3cc(C(F)(F)F)cnc32)cn1` [Example 118, 3-(6-methylpyridin-3-yl)-2-pyridin-2-yl-6-(trifluoromethyl)-3H-imidazo[4,5-b]pyridine], for which the midpoint of inhibition in test [2], the IC50, lay at 0.24 µM.
Consider `COc1cnc(-n2c(-c3cscn3)nc3cc(C(F)(F)F)cnc32)cn1` [Example 148, 3-(5-methoxypyrazine-2-yl)-2-(1,3-thiazol-4-yl)-6-(trifluoromethyl)-3H-imidazo[4,5-b]pyridine], for which the IC50 in test [2] was determined as 0.081 µM.
In the case of `CNc1ccc(-n2c(-c3ccc(F)cn3)nc3cc(C(F)(F)F)cnc32)cn1` [Example 149, 5-[2-(5-fluoropyridin-2-yl)-6-(trifluoromethyl)-3H-imidazo[4,5-b]pyridin-3-yl]-N-methylpyridin-2-amine], the half-maximal inhibitory concentration (IC50) in test [2] came to 0.23 µM.
Still for that read-out and setting: in the case of `COc1cnc(-n2c(-c3ccn(C)n3)nc3cc(C(F)(F)F)cnc32)cn1` [Example 153, 3-(5-methoxypyrazine-2-yl)-2-(1-methyl-1H-pyrazol-3-yl)-6-(trifluoromethyl)-3H-imidazo[4,5-b]pyridine] it was 0.291 µM.
In test [2], `COc1ccc(-n2c(-c3ccn(C)n3)nc3cc(OC(F)(F)F)ccc32)nn1` [Example 156, 1-(6-methoxypyridazin-3-yl)-2-(1-methyl-1H-pyrazol-3-yl)-5-(trifluoromethoxy)-1H-benzimidazole] registered a half-inhibitory concentration (IC50) of 0.076 µM.
Still for that read-out and setting: in the case of `COc1cnc(-n2c(-c3cnc(C#N)cn3)nc3cc(C(F)(F)F)cnc32)cn1` [Example 157] it was 0.074 µM.
The molecule `COc1cnc(-n2c(-c3ccccn3)nc3cc(C(F)(F)F)ccc32)cn1` [Example 161, 1-(5-methoxypyrazine-2-yl)-2-pyridin-2-yl-5-(trifluoromethyl)-1H-benzimidazole] showed an IC50 in test [2] of 0.268 µM.
The molecule `COc1ccc(-n2c(-c3cn(C)nn3)nc3cc(C(F)(F)F)ccc32)nn1` [Example 163, 1-(6-methoxypyridazin-3-yl)-2-(1-methyl-1H-1,2,3-triazol-4-yl)-5-(trifluoromethyl)-1H-benzimidazole] had an IC50 in test [2] of 0.125 µM.
In the case of `COc1cnc(-n2c(-c3cn(C)nn3)nc3cc(C(F)(F)F)cnc32)cn1` [Example 164, 3-(5-methoxypyrazine-2-yl)-2-(1-methyl-1H-1,2,3-triazol-4-yl)-6-(trifluoromethyl)-3H-imidazo[4,5-b]pyridine], the IC50 in test [2] came out at 0.161 µM.
Turning to `COc1cnc(-n2c(-c3cnn(C)c3)nc3cc(C(F)(F)F)cnc32)cn1` [Example 165, 3-(5-methoxypyrazine-2-yl)-2-(1-methyl-1H-pyrazol-4-yl)-6-(trifluoromethyl)-3H-imidazo[4,5-b]pyridine], the IC50 in test [2] was 0.203 µM.
On to `COc1ccc(-n2c(-c3cnn(C)c3)nc3cc(OC(F)(F)F)ccc32)nn1` [Example 166, 1-(6-methoxypyridazin-3-yl)-2-(1-methyl-1H-pyrazol-4-yl)-5-(trifluoromethoxy)-1H-benzimidazole], for which half-maximal inhibition in test [2] (IC50) required 0.316 µM.
Molecule `COc1ccc(-n2c(-c3cc(C)on3)nc3cc(OC(F)(F)F)ccc32)nn1` [Example 168, 1-(6-methoxypyridazin-3-yl)-2-(5-methylisoxazol-3-yl)-5-(trifluoromethoxy)-1H-benzimidazole] showed a half-maximal inhibitory concentration (IC50) in test [2] of 0.259 µM. This IC50 and that of the molecule before are within 1.5-fold of each other.
On the same count and under the same terms, next, `CCOc1cnc2c(c1)nc(-c1ccccn1)n2-c1ccc(OC)nc1` [Example 170, 6-ethoxy-3-(6-methoxypyridin-3-yl)-2-pyridin-2-yl-3H-imidazo[4,5-b]pyridine]: 0.279 µM; `COc1ccc(-n2c(-c3ccccn3)nc3cc(OCC4CC4)cnc32)cn1` [Example 171, 6-(cyclopropylmethoxy)-3-(6-methoxypyridin-3-yl)-2-pyridin-2-yl-3H-imidazo[4,5-b]pyridine]: 0.091 µM; `CCc1nc(-c2nc3cc(C(F)(F)F)cnc3n2-c2ccc(OC)nc2)co1` [Example 172, 2-(2-ethyl-1,3-oxazol-4-yl)-3-(6-methoxypyridin-3-yl)-6-(trifluoromethyl)-3H-imidazo[4,5-b]pyridine]: 0.275 µM.
Take `COc1cnc(-n2c(-c3ccccn3)cc3cc(C(F)(F)F)cnc32)cn1` [Example 187, 1-(5-methoxypyrazine-2-yl)-2-pyridin-2-yl-5-(trifluoromethyl)-1H-pyrrolo[2,3-b]pyridine]: half-maximal inhibition in test [2] (IC50) required 0.04 µM.
The same measure, in the same setting: in the case of `COc1ccc(-c2c3ccc(C(F)(F)F)cc3nn2-c2ccccn2)cn1` [Example 188, 3-(6-methoxypyridin-3-yl)-2-pyridin-2-yl-6-(trifluoromethyl)-2H-indazole] it was 0.03 µM; in that of `COc1ccc(-c2c(-c3ccccn3)nc3cc(C(F)(F)F)ccn23)cn1` [Example 190, 3-(6-methoxypyridin-3-yl)-2-pyridin-2-yl-7-(trifluoromethyl)imidazo[1,2-a]pyridine], 0.218 µM; in that of `COc1ccc(-c2c(-c3ccc(F)cn3)nc3cc(C(F)(F)F)ccn23)cn1` [Example 191, 2-(5-fluoropyridin-2-yl)-3-(6-methoxypyridin-3-yl)-7-(trifluoromethyl)imidazo[1,2-a]pyridine], 0.79 µM.
